According to PMC4079689, “HIV Treatments Reduce Malaria Liver Stage Burden in a Non-Human Primate Model of Malaria Infection at Clinically Relevant Concentrations In Vivo” (PLoS ONE, 2014):
Where two headings read alike, the source gives them in different places.

Tests used:
[1] = Indian origin, rhesus monkey, in vivo, po
[2] = parameters: method as in Ibarra et al. Eur J Pharm Sci. 2012;46(5):516–21; conditions: human historical data, LPV-RTV; ref Ibarra et al. Eur J Pharm Sci. 2012;46(5):516–21; cited from earlier work
[3] = in vivo; conditions: Indian origin, rhesus monkey, po; for Cmax: 50 mg/kg
[4] = Pharmacokinetic study, single dose by gavage, plasma HPLC-MS/MS
[5] = human historical data, cited from earlier work
[6] = tested on: P. knowlesi asexual blood stage parasites; parameters: method as in PMID 21486958; conditions: rhesus macaques; cited from earlier work
[7] = rhesus JMF, dosing regimen LPV-RTV+TMP-SMX, sedated
[8] = rhesus JRH, dosing regimen LPV-RTV+TMP-SMX, awake
[9] = rhesus LK8A, dosing regimen LPV-RTV alone, sedated
[10] = TMP-SMX, ref Patel et al. 1980, Dudley et al. 1984

For Cc1cccc(C)c1OCC(=O)N[C@@H](Cc1ccccc1)[C@@H](O)C[C@H](Cc1ccccc1)NC(=O)[C@H](C(C)C)N1CCCNC1=O [Lopinavir], the Cmax [1] is given as 10900 ng/mL, the “AUC0–24” value [2] is given as 95000 ng·h/mL and the Cmax [2] is given as 7060 ng/mL. The T1/2 [2] was 5.2 h, the Tmax [2] was 3 to 6 h and the AUC(0-t) ([3]; in vivo) was 171000 ng·h/mL. It also gave a Cmax ([3]; in vivo) of 10300 ng/mL.
In the case of CC(C)c1nc(CN(C)C(=O)N[C@H](C(=O)N[C@@H](Cc2ccccc2)C[C@H](O)[C@H](Cc2ccccc2)NC(=O)OCc2cncs2)C(C)C)cs1 [Ritonavir], the “AUC0–24” value [2] is given as 4310 ng·h/mL, the T1/2 [2] is given as 5.12 h and the Tmax [2] is given as 3 to 6 h. The Cmax ([3]; plasma) was 3600 ng/mL, the “AUC0–24” value [4, 7] was 11100 ng·h/mL and the Tmax [4, 7] was 24.0 h. The “AUC0–24” value [4, 8] was 23200 ng·h/mL, the Tmax [4, 8] was 6.0 h and the “AUC0–24” value [4, 9] was 37800 ng·h/mL. It also gave a Tmax [4, 9] of 8.0 h.
For COc1cc(Cc2cnc(N)nc2N)cc(OC)c1OC [Trimethoprim], the Cmax [1] is given as 130 ng/mL, the AUC(0-t) ([3]; in vivo) is given as 1730 ng·h/mL and the T1/2 [5, 10] is given as 8 to 10 h. For the same compound, the Tmax [5, 10] was 1 to 4 h, the “AUC0–24” value ([5]; dose 5 mg/kg trimethoprim and 25 mg/kg sulfamethoxazole iv, ref Dudley et al. Antimicrob Agents Chemother 1984;26:811–814) was 32.6 ^2 µg*hr/mL and the Cmax ([5]; dose 160 mg trimethoprim and 800 mg sulfamethoxazole, ref Patel et al. Clin Pharmacokinet 1980;5:405–423) was 1–2 ^1 µg/mL.
For CC(C)(C)NC(=O)[C@@H]1CN(Cc2cccnc2)CCN1C[C@@H](O)C[C@@H](Cc1ccccc1)C(=O)N[C@H]1c2ccccc2C[C@H]1O [indinavir], the “Killing activity against P. knowlesi” value [6] is given as “exhibited killing activity”.
